Results published in patent US20170105969A1, “CENICRIVIROC FOR THE TREATMENT OF HIV-2 INFECTION” (Tobira Therapeutics, Inc., priority 2014, published 2017).
Structures can show the parent of a compound that is named as a salt. Where two headings read alike, the source gives them in different places. Marks after values point to notes of the source that are not given here. Blank lines part the entries; values can stand above or below the compound they belong to.

Key:
CCR2 = target: T1, CCR2 (Homo sapiens, UniProt P41597); experiment: CCR2 receptor occupancy / internalization in PBMCs (monocytes) by flow cytometry; assay type: cell-based
T1 construct: endogenous in cells; host or cells: monocytes within PBMCs from 5 HIV+ and 5 HIV- subjects
T1 sequence (P41597 1-360 isoform P41597-2): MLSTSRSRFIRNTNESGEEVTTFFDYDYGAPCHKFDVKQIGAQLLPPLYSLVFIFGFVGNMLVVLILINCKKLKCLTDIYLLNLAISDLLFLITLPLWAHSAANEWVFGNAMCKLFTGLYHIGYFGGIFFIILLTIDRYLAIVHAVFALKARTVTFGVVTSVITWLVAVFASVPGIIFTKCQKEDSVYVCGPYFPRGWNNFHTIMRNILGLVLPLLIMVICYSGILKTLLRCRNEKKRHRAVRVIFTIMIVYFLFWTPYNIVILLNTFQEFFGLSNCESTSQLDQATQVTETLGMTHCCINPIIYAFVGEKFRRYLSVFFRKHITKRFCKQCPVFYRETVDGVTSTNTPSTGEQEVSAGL
Experimental: (§1) The capacity of each drug to inhibit CCR5 or CCR2 internalization was evaluated. Cell-surface expression of CCR5 and CCR2 was assessed by flow cytometry, and fluorescence values were converted into molecules of equivalent soluble fluorescence (MESF).

[1] = APRI and FIB-4 fibrosis scores, post-hoc analysis of Study 202; assay type: in vivo, human
Experimental: Change in score category from baseline (BL) to Weeks 24 and 48 was assessed in patients with non-missing data. Correlations between changes from BL in APRI and FIB-4 scores, and MCP-1 (CCR2 ligand) and sCD14 (inflammatory biomarker) levels were evaluated.

HIV = experiment: Ex vivo intracellular HIV DNA (qPCR) in PBMCs of Study 202 subjects; conditions: EFV 600 mg arm, Week 24
Experimental: (§2) Early (strong-stop) and late (full-length) reverse transcript levels were measured by qPCR. […] P24 and viral load levels were measured by ELISA and qRT-PCR after 4 hours.

HIV-1 [2] = experiment: Study 202: virologic response (plasma HIV-1 RNA <50 copies/mL), Snapshot algorithm, ITT; assay type: in vivo, human; conditions: Week 24; EFV arm
From the text: The primary efficacy endpoint was the percentage of subjects with plasma HIV-1 RNA <50 copies/mL at Week 24 (using the FDA Snapshot algorithm and the ITT population).

HIV-1 [3] = experiment: as above; assay type: in vivo, human; conditions: for virologic non-response, subgroup with high baseline viral load (≧100,000 copies/mL): EFV
[4] = Solubility of cenicriviroc mesylate; assay type: physicochemical
CCR5 = CCR5 (Homo sapiens, UniProt P51681); experiment: CCR5 receptor occupancy / internalization in PBMCs by flow cytometry; assay type: cell-based
Experimental: as §1

CCR5-tropic HIV-1 BaL = experiment: PM-1 cells infected with HIV-1 BaL, supernatant P24 and viral load after 4 hours; assay type: cell-based; conditions: CVC 20 nM or MVC 50 nM
Experimental: as §2

HIV-2 clinical isolates = experiment: HIV-2 phenotypic susceptibility, ANRS PBMC method; assay type: cell-based
Experimental: All patients were infected with HIV-2 group A. Tropism was determined phenotypically using Ghost(3) cell lines expressing CD4 receptor and one HIV coreceptor, CCR5 or CXCR4. Both Ghost(3) cell lines carries a humanized green fluorescent protein (GFP) gene, under the control of a HIV-2 LTR. […] Ghost(3) cells were provided by the NIH AIDS Reagent program.
Briefly, cell-free HIV-2 positive supernatant was serially diluted (1, 10^−1, and 10^−2) and incubated with PBMC for viral titration. Viruses were tested at a 100 TCID50 titration. Cells were pre-incubated with cenicriviroc or maraviroc at an appropriate concentration 1 hour before viral infection. Six serial dilutions of the antiretroviral drug were tested in quadruplicate. On day 4, viral replication was assessed by a specific viral load assay (Generic HIV-2 viral load, Biocentric, France).

HIV-1 [5] = experiment: HIV-1 susceptibility to maraviroc, observed results; assay type: cell-based; conditions: HIV-1 (n = 4)
HIV-1 [6] = conditions: HIV-1 (n = 43); Dorr et al. (2005); read-out: Median IC50; cited from earlier work
[7] = HIV-2 isolate 10-046, group A, R5
[8] = HIV-2 isolate 10-051, group A, R5
[9] = HIV-2 isolate 10-055, group A, X4
[10] = HIV-2 isolate 10-056, group A, R5
[11] = HIV-2 isolate 10-069, group A, Dual
[12] = HIV-2 isolate 10-074, group A, R5
[13] = mixed R5/X4 HIV-2 clinical isolate, first of two
[14] = mixed R5/X4 HIV-2 clinical isolate, second of two

CCR5, sequence (P51681 whole entry): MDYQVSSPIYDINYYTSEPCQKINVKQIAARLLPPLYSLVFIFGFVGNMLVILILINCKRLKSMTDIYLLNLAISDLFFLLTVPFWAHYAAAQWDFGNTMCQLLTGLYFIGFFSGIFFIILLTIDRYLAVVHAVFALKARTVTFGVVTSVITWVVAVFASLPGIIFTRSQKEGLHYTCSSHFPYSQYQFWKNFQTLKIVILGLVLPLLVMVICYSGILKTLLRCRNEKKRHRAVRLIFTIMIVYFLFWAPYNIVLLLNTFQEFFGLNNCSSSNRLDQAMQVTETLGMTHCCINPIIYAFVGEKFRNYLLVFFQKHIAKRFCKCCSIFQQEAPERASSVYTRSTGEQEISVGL

- average concentration required to reach >80% receptor occupancy (CCR2; CCR2, monocytes): 18 nM
Compound: CSc1ccc(C(=O)N[C@@H]2CCCC[C@@H]2NC(=O)CNC(=O)c2cc(C(F)(F)F)ccc2NC(=O)NC(C)C)cc1 [BMS-22, reference compound]
- CCR2 cell-surface expression (in words) (CCR2; in the absence of MCP-1, monocytes): slightly increased CCR2 cell-surface expression

Compound: O=C1Nc2ccc(Cl)cc2[C@@](C#CC2CC2)(C(F)(F)F)O1 [EFV, efavirenz, reference compound]
- patients in APRI category 0.5-1.5 ([1]; Baseline): 4%
- patients in APRI category <0.5 ([1]; Baseline): 96%
- patients in FIB-4 category <1.45 ([1]; Baseline): 100%
- APRI: Decreased 1 category from baseline ([1]; Week 24): 5%
- patients in APRI category <0.5 ([1]; Week 24): 100%
- patients in FIB-4 category <1.45 ([1]; Week 24): 100%
- APRI: Decreased 1 category from baseline ([1]; Week 48): 6%
- patients in APRI category <0.5 ([1]; Week 48): 100%
- patients in FIB-4 category 1.45-3.25 ([1]; Week 48): 6%
- patients in FIB-4 category <1.45 ([1]; Week 48): 94%
- Strong-stop HIV DNA decline (marker of HIV entry) (HIV): no decline
- Discontinued study due to AE or death (HIV-1 [2]): (18%)
- HIV-1 RNA ≧50 but <400 copies/mL (HIV-1 [2]): (4%)^f
- virologic non-response, subgroup with high baseline viral load (≧100,000 copies/mL) (HIV-1 [3]; Week 24): 25%
- virologic non-response, subgroup with high baseline viral load (≧100,000 copies/mL) (HIV-1 [3]; Week 48): 25%
- Discontinued study due to AE or death (HIV-1 [3]; Week 48, EFV arm): (21%)

Compound: CCCCOCCOc1ccc(-c2ccc3c(c2)C=C(C(=O)Nc2ccc([S@@+]([O-])Cc4cncn4CCC)cc2)CCCN3CC(C)C)cc1 [cenicriviroc mesylate, (S)-8-[4-(2-Butoxyethoxy)phenyl]-1-isobutyl-N-(4-{[(1-propyl-1H-imidazol-5-yl)methyl]sulfinyl}phenyl)-1,2,3,4-tetrahydro-1-benzazocine-5-carboxamide monomethanesulfonoate]
- solubility ([4]; 99.5% ethanol): sparingly soluble
- solubility ([4]; acetonitrile, 1-octanol, tetrahydrofuran): slightly soluble
- solubility ([4]; aqueous solution at pH 3): sparingly soluble
- solubility ([4]; aqueous solution from pH 1 to 2): freely soluble
- solubility ([4]; aqueous solution from pH 4 to 13 and in water): practically insoluble
- solubility ([4]; ethyl acetate and diethylether): practically insoluble
- solubility ([4]; glacial acetic acid, methanol, benzyl alcohol, dimethylsulfoxide, N,N-dimethylformamide): freely soluble
- solubility ([4]; pyridine and acetic anhydride): soluble

Compound: maraviroc [MVC]
- CCR5 receptor occupancy at saturation (CCR5; CD4+ T cells): ~86%
- effective concentration at which saturation of CCR5 was reached (CCR5; CD4+ T cells): 12.5 nM
- CCR5 receptor occupancy at saturation (CCR5; CD8+ T cells): ~87%
- effective concentration at which saturation of CCR5 was reached (CCR5; CD8+ T cells): 12.5 nM
- cell-surface expression of CCR5 (in words) (CCR5; in the absence of RANTES, PBMCs): increased cell-surface expression of CCR5
- supernatant P24 (CCR5-tropic HIV-1 BaL; 0 hrs (baseline)): 506 ng/mL
- viral load (CCR5-tropic HIV-1 BaL; 0 hrs): 1.19×10^10 copies/ml
- supernatant P24 (CCR5-tropic HIV-1 BaL; 4 hrs): 520 ng/mL
- viral load (CCR5-tropic HIV-1 BaL; 4 hrs): 1.67×10^10 copies/ml
- median MPI (HIV-2 clinical isolates; 13 R5 HIV-2 clinical isolates): 93%
- median MPI (HIV-2 clinical isolates; 13 R5 HIV-2 clinical isolates, listed as maraviroc): 93%
- EC50 (HIV-2 clinical isolates; [7]): 1.13 nM
- MPI (%) (HIV-2 clinical isolates; [7]): 93%
- EC50 (HIV-2 clinical isolates; [8]): 0.48 nM
- MPI (%) (HIV-2 clinical isolates; [8]): 82%
- EC50 (HIV-2 clinical isolates; [9]): > 1000 nM
- MPI (%) (HIV-2 clinical isolates; [9]): 0%
- EC50 (HIV-2 clinical isolates; [10]): 0.58 nM
- MPI (%) (HIV-2 clinical isolates; [10]): 90%
- EC50 (HIV-2 clinical isolates; [11]): > 1000 nM
- MPI (%) (HIV-2 clinical isolates; [11]): 12%
- EC50 (HIV-2 clinical isolates; [12]): 0.68 nM
- MPI (%) (HIV-2 clinical isolates; [12]): 100%
- EC50 (HIV-2 clinical isolates; X4 HIV-2 clinical isolate): > 1000 nM
- MPI (HIV-2 clinical isolates; X4 HIV-2 clinical isolate): 0%
- EC50 (HIV-2 clinical isolates; [13]): 9.4 nM
- MPI (HIV-2 clinical isolates; [13]): 55%
- EC50 (HIV-2 clinical isolates; [14]): > 1000 nM
- MPI (HIV-2 clinical isolates; [14]): 12%
- IC50 (HIV-2 clinical isolates; read-out: Median IC50, HIV-2 (n = 13), Observed Results): 0.8 nM
- EC50 (HIV-2 clinical isolates; read-out: median EC50, 13 R5 HIV-2 clinical isolates): 0.8 nM
- median MPI (HIV-1 [5]): 74%
- IC50 (HIV-1 [5]; read-out: Median IC50): 2.4 nM
- IC50 (HIV-1 [6]): 0.4 nM
